The subject of this assay is CD2F1 mice, L1210 leukemia ip, survival T/C. The experiment in a line: NCI In Vivo Anticancer Drug Screen. Data for tumor model L1210 Leukemia (intraperitoneal) in CD2F1 (CDF1) mice. To be noted: higher = longer survival. In a few lines: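 Activity against a transplanted murine tumor was judged by comparing the compound group with a vehicle group. The outcome in the treated animals was divided by that in the controls.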

The mark [1] stands for this setting: endpoint: mean survival time, dose: 50.0 mg/kg/injection, schedule: Q01DX009 (ip), vehicle: saline with Tween-80.
Setting [2] is: endpoint: mean survival time, dose: 100.0 mg/kg/injection, schedule: Q01DX009 (ip), vehicle: saline with Tween-80.
Setting [3] is: endpoint: mean survival time, dose: 100.0 mg/kg/injection, schedule: Q04DX003 (ip), vehicle: saline with Tween-80.
Setting [4] is: endpoint: mean survival time, dose: 200.0 mg/kg/injection, schedule: Q01DX009 (ip), vehicle: saline with Tween-80.
Where [5] appears, read: endpoint: mean survival time, dose: 200.0 mg/kg/injection, schedule: Q04DX003 (ip), vehicle: saline with Tween-80.
[6] abbreviates: endpoint: mean survival time, dose: 400.0 mg/kg/injection, schedule: Q04DX003 (ip), vehicle: saline with Tween-80.
[7] abbreviates: endpoint: mean survival time, dose: 400.0 mg/kg/injection, schedule: Q01DX009 (ip), vehicle: saline with Tween-80.
Setting [8] is: endpoint: mean survival time, dose: 12.5 mg/kg/injection, schedule: Q01DX009 (ip), vehicle: saline with Tween-80.
Where [9] appears, read: endpoint: mean survival time, dose: 25.0 mg/kg/injection, schedule: Q01DX009 (ip), vehicle: saline with Tween-80.
[10] abbreviates: endpoint: mean survival time, dose: 100.0 mg/kg/injection, schedule: Q04DX003 (ip), vehicle: saline.
Where [11] appears, read: endpoint: mean survival time, dose: 200.0 mg/kg/injection, schedule: Q04DX003 (ip), vehicle: saline.
Where [12] appears, read: endpoint: mean survival time, dose: 400.0 mg/kg/injection, schedule: Q04DX003 (ip), vehicle: saline.
Where [13] appears, read: endpoint: mean survival time, dose: 100.0 mg/kg/injection, schedule: Q01DX009 (ip), vehicle: saline.
The mark [14] stands for this setting: endpoint: mean survival time, dose: 200.0 mg/kg/injection, schedule: Q01DX009 (ip), vehicle: saline.

Values joined by “and” are separate entries in the source; they are usually repeats but may differ in a detail not shown here. Identical values can stand only once. Inconclusive results and toxic doses are left out.

For the compound `O=NN(CCCl)C(=S)NCCCl`, the T/C runs as follows: (endpoint: mean survival time, dose: 1.87 mg/kg/injection, schedule: Q01DX001 (ip), vehicle: distilled water + Tween-80) 113 % of control; (endpoint: mean survival time, dose: 3.75 mg/kg/injection, schedule: Q01DX001 (ip), vehicle: distilled water + Tween-80) 115 % of control; (endpoint: mean survival time, dose: 15.0 mg/kg/injection, schedule: Q01DX001 (ip), vehicle: distilled water + Tween-80) 159 % of control and 215 % of control; (endpoint: mean survival time, dose: 30.0 mg/kg/injection, schedule: Q01DX001 (ip), vehicle: distilled water + Tween-80) 318 % of control.

On to `S=C(NNc1ccccc1)NC1CCCCC1`, for which the T/C was 96 % of control (endpoint: mean survival time, dose: 25.0 mg/kg/injection, schedule: Q01DX009 (ip), vehicle: acetone); 100 % of control (endpoint: mean survival time, dose: 50.0 mg/kg/injection, schedule: Q01DX009 (ip), vehicle: acetone); 96 % of control (endpoint: mean survival time, dose: 100.0 mg/kg/injection, schedule: Q01DX009 (ip), vehicle: acetone).

With `CC(C)CC(NC(=O)OCc1ccccc1)C(=O)NCCCCCCCCCCNC(=O)C(CC(C)C)NC(=O)OCc1ccccc1` (configuration not stated), the T/C (endpoint: mean survival time, dose: 10.0 mg/kg/injection, schedule: Q01DX Z (ip), vehicle: saline) is 96 % of control; the T/C (endpoint: mean survival time, dose: 30.0 mg/kg/injection, schedule: Q01DX Z (ip), vehicle: saline) is 97 % of control; the T/C (endpoint: mean survival time, dose: 100.0 mg/kg/injection, schedule: Q01DX Z (ip), vehicle: saline) is 91 % of control; the T/C (endpoint: mean survival time, dose: 300.0 mg/kg/injection, schedule: Q01DX Z (ip), vehicle: saline) is 97 % of control.

On to `NC(=S)c1cccc2ccccc12`, for which the T/C is 105 % of control (endpoint: mean survival time, dose: 100.0 mg/kg/injection, schedule: Q04DX002 (ip), vehicle: Klucel (hydroxypropylcellulose) (HPC)); 98 % of control (endpoint: mean survival time, dose: 200.0 mg/kg/injection, schedule: Q04DX002 (ip), vehicle: Klucel (hydroxypropylcellulose) (HPC)); 110 % of control (endpoint: mean survival time, dose: 400.0 mg/kg/injection, schedule: Q04DX002 (ip), vehicle: Klucel (hydroxypropylcellulose) (HPC)).

Regarding `Clc1ccc2c(NCCN3CCCCCC3)nc(C(Cl)(Cl)Cl)nc2c1`, the T/C is, setting by setting: under setting [1], 94 % of control; (endpoint: mean survival time, dose: 50.0 mg/kg/injection, schedule: Q04DX003 (ip), vehicle: saline with Tween-80) 103 % of control; under setting [2], 98 % of control; under setting [3], 94 % of control; under setting [4], 98 % of control; under setting [5], 92 % of control.

As for `C=CCOC(OCC=C)C(OCC=C)OCC=C`, the T/C under setting [3] was 102 % of control, the T/C under setting [5] was 96 % of control and the T/C under setting [6] is 96 % of control.

For `COc1ccc(OC)c(/C=C/c2ccc3ccccc3[n+]2C)c1`, the T/C is, setting by setting: (endpoint: mean survival time, dose: 5.0 mg/kg/injection, schedule: Q01DX009 (ip), vehicle: saline with Tween-80) 98 % of control; (endpoint: mean survival time, dose: 10.0 mg/kg/injection, schedule: Q01DX009 (ip), vehicle: saline with Tween-80) 88 % of control.

As to `NC(=O)C1=C2CCCc3cccc(c32)C1=O`, the T/C by setting is: under setting [2], 94 % of control; under setting [3], 99 % of control; under setting [4], 94 % of control; under setting [5], 100 % of control; under setting [7], 97 % of control; under setting [6], 87 % of control.

`CCCSc1ncnc2nc[nH]c12`: the T/C is, setting by setting: (endpoint: median survival time, dose: 31.25 mg/kg/injection, schedule: Q01DX009 (ip), vehicle: saline) 100 % of control; (endpoint: median survival time, dose: 62.5 mg/kg/injection, schedule: Q01DX009 (ip), vehicle: saline) 114 % of control and 111 % of control; (endpoint: median survival time, dose: 125.0 mg/kg/injection, schedule: Q01DX009 (ip), vehicle: saline) 121 % of control and 111 % of control; (endpoint: median survival time, dose: 250.0 mg/kg/injection, schedule: Q01DX009 (ip), vehicle: saline) 122 % of control.

On to `C(=NCc1ccccc1)c1ccccc1-c1ccccc1C=NCc1ccccc1`, for which the T/C under setting [3] was 97 % of control, the T/C under setting [5] was 107 % of control and the T/C under setting [6] was 106 % of control.

`CC1CCCCC1C(C)(C#N)Nc1ccccc1` (configuration not stated): the T/C was 103 % of control under setting [3], 104 % of control under setting [5] and 97 % of control under setting [6].

With `C/C=C1/CN2[C@H]3C[C@@]45c6ccccc6N[C@@H]4[C@@H]2C[C@H]1[C@@]3(C(=O)OC)[C@H]5O`, the T/C is 91 % of control under setting [2]; 95 % of control under setting [3]; 95 % of control under setting [4]; 100 % of control under setting [5]; 91 % of control under setting [7]; 103 % of control under setting [6].

For `CC(C)CN(CC(C)C)C(=S)[S-].CC(C)CN(CC(C)C)C(=S)[S-].[Zn]`, the T/C (endpoint: mean survival time, dose: 75.0 mg/kg/injection, schedule: Q04DX003 (ip), vehicle: saline) was 91 % of control; the T/C (endpoint: mean survival time, dose: 150.0 mg/kg/injection, schedule: Q04DX003 (ip), vehicle: saline) is 89 % of control; the T/C (endpoint: mean survival time, dose: 300.0 mg/kg/injection, schedule: Q04DX003 (ip), vehicle: saline) was 95 % of control.

As for `CCCOS(=O)(=O)c1ccc(Cl)c([N+](=O)[O-])c1`, the T/C is 97 % of control under setting [1], 90 % of control under setting [2], 94 % of control under setting [3] and 89 % of control under setting [5].

With `CC(c1ccccc1)n1ccnc1CO` (configuration not stated), the T/C is, setting by setting: under setting [8], 96 % of control; under setting [9], 104 % of control; under setting [1], 96 % of control and 102 % of control; under setting [2], 91 % of control; under setting [4], 98 % of control.

On to `CC1(C)C(O)(C#N)C(C)(C)C1(O)C#N` (configuration not stated), for which the T/C runs as follows: (endpoint: mean survival time, dose: 6.25 mg/kg/injection, schedule: Q04DX003 (ip), vehicle: saline) 102 % of control; (endpoint: mean survival time, dose: 12.5 mg/kg/injection, schedule: Q04DX003 (ip), vehicle: saline) 97 % of control.

Consider `CC[N+](CC)(CCOc1ccc(C(C)(C)CC(C)(C)C)cc1)Cc1ccccc1`, for which the T/C (endpoint: mean survival time, dose: 5.0 mg/kg/injection, schedule: Q04DX003 (ip), vehicle: saline) was 102 % of control.

On to `COC(=O)C1CC2C=CC1CC2` (configuration not stated), for which the T/C by setting is: under setting [10], 97 % of control; under setting [11], 105 % of control; under setting [12], 95 % of control.

For the compound `CCCN(CCC)CC(C)O` (configuration not stated), the T/C is 95 % of control (endpoint: mean survival time, dose: 50.0 mg/kg/injection, schedule: Q01DX009 (ip), vehicle: saline); 101 % of control under setting [13]; 97 % of control under setting [14].

Regarding `Cn1c(=S)sc2ccccc21`, the T/C runs as follows: (endpoint: mean survival time, dose: 25.0 mg/kg/injection, schedule: Q04DX003 (ip), vehicle: Klucel (hydroxypropylcellulose) (HPC)) 101 % of control; (endpoint: mean survival time, dose: 50.0 mg/kg/injection, schedule: Q04DX003 (ip), vehicle: Klucel (hydroxypropylcellulose) (HPC)) 109 % of control; under setting [3], 110 % of control.

Turning to `CCC(CC)c1ccccn1`, the T/C under setting [13] is 115 % of control; the T/C under setting [10] was 99 % of control; the T/C under setting [14] was 120 % of control; the T/C under setting [11] was 99 % of control; the T/C (endpoint: mean survival time, dose: 400.0 mg/kg/injection, schedule: Q01DX009 (ip), vehicle: saline) is 117 % of control; the T/C under setting [12] was 110 % of control.

Take `COC(=O)c1cccc2c(Br)cc3ccccc3c12`: the T/C is 98 % of control (endpoint: mean survival time, dose: 100.0 mg/kg/injection, schedule: Q01DX009 (ip), vehicle: Klucel (hydroxypropylcellulose) (HPC)); 102 % of control (endpoint: mean survival time, dose: 100.0 mg/kg/injection, schedule: Q04DX003 (ip), vehicle: Klucel (hydroxypropylcellulose) (HPC)); 103 % of control (endpoint: mean survival time, dose: 200.0 mg/kg/injection, schedule: Q01DX009 (ip), vehicle: Klucel (hydroxypropylcellulose) (HPC)); 98 % of control (endpoint: mean survival time, dose: 200.0 mg/kg/injection, schedule: Q04DX003 (ip), vehicle: Klucel (hydroxypropylcellulose) (HPC)); 110 % of control (endpoint: mean survival time, dose: 400.0 mg/kg/injection, schedule: Q01DX009 (ip), vehicle: Klucel (hydroxypropylcellulose) (HPC)); 108 % of control (endpoint: mean survival time, dose: 400.0 mg/kg/injection, schedule: Q04DX003 (ip), vehicle: Klucel (hydroxypropylcellulose) (HPC)).

Turning to `Cc1cc(NCCN(C(C)C)C(C)C)nc(Nc2nc3cc(Cl)c(Cl)cc3[nH]2)n1`, the T/C by setting is: (endpoint: mean survival time, dose: 6.25 mg/kg/injection, schedule: Q01DX009 (ip), vehicle: saline with Tween-80) 100 % of control; under setting [8], 105 % of control; under setting [9], 92 % of control; under setting [3], 87 % of control.

As to `COc1cc(OC)cc(C2=NNc3n[nH]c(=S)n3N2)c1`, the T/C was 91 % of control under setting [2]; 93 % of control under setting [3]; 93 % of control under setting [4]; 90 % of control under setting [5]; 102 % of control under setting [6].

(Values after PubChem BioAssay AID256 (DTP/NCI, 2004).)
